The results in this text go back to US20200239530A1, “COMPOUNDS AND METHODS OF MODULATING PROTEIN DEGRADATION” (Vividion Therapeutics, Inc., priority 2017, published 2020).

Holding throughout (assay): Cysteine liganding, probe competition
What all share (format): binding

Experiment [1] addresses T1, GOLGA2 Golgin subfamily A member 2 (Homo sapiens, UniProt Q08379).
T1 construct: Cells were resuspended in cold PBS on ice and sonicated with a probe sonicator to achieve lysis; endogenous in cells
T1 sequence (Q08379 1-1002): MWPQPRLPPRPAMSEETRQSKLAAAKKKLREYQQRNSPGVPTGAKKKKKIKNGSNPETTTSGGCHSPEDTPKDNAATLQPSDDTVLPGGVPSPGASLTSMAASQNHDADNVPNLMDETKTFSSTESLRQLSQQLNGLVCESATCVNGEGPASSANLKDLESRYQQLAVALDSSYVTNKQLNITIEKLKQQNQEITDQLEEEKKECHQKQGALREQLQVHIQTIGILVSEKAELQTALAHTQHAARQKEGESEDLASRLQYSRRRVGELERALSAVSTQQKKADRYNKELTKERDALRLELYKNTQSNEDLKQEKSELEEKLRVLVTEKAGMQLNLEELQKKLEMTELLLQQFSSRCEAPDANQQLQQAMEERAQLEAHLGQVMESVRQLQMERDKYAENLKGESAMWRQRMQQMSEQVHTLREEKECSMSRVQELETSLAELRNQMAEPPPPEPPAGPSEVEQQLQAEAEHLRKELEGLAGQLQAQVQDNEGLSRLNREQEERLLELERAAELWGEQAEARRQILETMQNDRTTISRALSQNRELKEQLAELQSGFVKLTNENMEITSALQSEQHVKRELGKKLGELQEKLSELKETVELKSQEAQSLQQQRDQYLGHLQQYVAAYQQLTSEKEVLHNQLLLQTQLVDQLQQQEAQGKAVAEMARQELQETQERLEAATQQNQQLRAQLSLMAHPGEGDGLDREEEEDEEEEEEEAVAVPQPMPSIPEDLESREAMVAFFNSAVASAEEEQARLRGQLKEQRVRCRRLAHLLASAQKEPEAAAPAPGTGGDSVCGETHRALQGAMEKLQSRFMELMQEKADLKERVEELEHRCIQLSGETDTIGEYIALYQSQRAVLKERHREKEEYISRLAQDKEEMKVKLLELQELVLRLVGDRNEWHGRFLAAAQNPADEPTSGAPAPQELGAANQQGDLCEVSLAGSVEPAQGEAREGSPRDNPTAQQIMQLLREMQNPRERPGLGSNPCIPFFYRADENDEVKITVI
Summed up:
(§1)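 Lysates from probe-sonicated cells in PBS (5 mg/ml proteome) were exposed to compound for 1 hr at 25° C, then labelled with desthiobiotin iodoacetamide probe (10 mM stock) for 1 hr at 25° C. Probe-tagged peptides were streptavidin-enriched after trypsin digestion.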

The target of experiment [2] is T2, RNF20 E3 ubiquitin-protein ligase BRE1A (Homo sapiens, UniProt Q5VTR2).
T2 construct: Cells were resuspended in cold PBS on ice and sonicated with a probe sonicator to achieve lysis; endogenous in cells
The procedure, abridged: as §1

Experiment [3] deals with T3, LGMN Legumain (Homo sapiens, UniProt Q99538).
T3 construct: Cells were resuspended in cold PBS on ice and sonicated with a probe sonicator to achieve lysis; endogenous in cells
T3 sequence (Q99538 18-323): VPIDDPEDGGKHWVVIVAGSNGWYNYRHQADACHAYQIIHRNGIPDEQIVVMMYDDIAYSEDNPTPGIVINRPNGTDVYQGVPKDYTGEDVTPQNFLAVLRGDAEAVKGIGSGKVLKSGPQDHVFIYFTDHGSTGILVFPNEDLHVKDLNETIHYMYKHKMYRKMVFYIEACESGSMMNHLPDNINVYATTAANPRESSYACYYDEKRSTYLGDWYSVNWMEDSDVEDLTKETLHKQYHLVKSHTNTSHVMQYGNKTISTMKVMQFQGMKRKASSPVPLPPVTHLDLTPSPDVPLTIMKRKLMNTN
As to conditions: for 100 Max / 100 ave / 500 Max / 500 ave: uniprot Q99538. Summed up: as §1

T2 sequence (Q5VTR2 whole entry): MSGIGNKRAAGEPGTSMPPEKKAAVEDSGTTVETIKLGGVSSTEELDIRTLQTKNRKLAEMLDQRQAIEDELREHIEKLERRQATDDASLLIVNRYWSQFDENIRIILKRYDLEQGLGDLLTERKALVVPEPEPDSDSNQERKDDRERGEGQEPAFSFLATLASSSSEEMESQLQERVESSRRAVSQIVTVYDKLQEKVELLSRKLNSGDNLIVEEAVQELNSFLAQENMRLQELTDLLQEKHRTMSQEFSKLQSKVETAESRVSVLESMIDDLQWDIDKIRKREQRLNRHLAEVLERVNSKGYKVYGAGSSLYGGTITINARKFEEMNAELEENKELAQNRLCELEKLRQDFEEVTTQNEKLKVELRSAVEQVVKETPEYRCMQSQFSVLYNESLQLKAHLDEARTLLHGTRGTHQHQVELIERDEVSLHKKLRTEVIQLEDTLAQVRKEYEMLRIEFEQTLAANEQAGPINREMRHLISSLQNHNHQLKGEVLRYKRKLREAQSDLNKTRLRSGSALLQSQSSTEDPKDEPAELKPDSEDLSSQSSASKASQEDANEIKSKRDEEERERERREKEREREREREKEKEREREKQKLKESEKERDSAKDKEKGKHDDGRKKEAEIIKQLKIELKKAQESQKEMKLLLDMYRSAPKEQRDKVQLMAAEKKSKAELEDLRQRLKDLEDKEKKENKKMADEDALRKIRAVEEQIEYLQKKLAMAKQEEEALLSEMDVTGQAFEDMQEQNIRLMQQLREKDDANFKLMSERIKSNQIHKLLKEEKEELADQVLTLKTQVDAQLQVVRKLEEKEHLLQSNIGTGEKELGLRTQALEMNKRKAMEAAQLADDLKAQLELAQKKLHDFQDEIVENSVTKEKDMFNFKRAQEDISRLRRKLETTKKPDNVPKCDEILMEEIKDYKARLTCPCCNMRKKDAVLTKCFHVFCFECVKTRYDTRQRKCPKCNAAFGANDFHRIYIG

Turning to `COc1ccc2c(c1)CCCN2C(=O)CCl` [KB02], the Liganded entry in experiment [1] (GOLGA2 Res# 794, uniprot Q08379) is “YES”. The Liganded result in experiment [2] (RNF20 Res# 383, uniprot Q5VTR2) is “YES”. Besides, the Liganded result in experiment [3] (LGMN Res# 50, uniprot Q99538) is on record as “YES”. For the same compound, in experiment [3], the “100 Max” value was 33.6, the 100 ave is given as 20.31, the “500 Max” value is listed as 78.38 and the 500 ave is 78.38.
As for `O=C(CCl)Nc1cc(C(F)(F)F)cc(C(F)(F)F)c1` [KBO3], in experiment [1] (uniprot Q08379), the “100 Max” value was 1.85, the 100 ave is given as 1.85, the “500 Max” value turned out to be 54.38 and the 500 ave is recorded as 54.38. Also, in experiment [2] (uniprot Q5VTR2), the “100 Max” value worked out at 11.0, the 100 ave is 0.6, the “500 Max” value was found to be 37.3 and the 500 ave worked out at 32.6. Also, in experiment [3], the “100 Max” value came out at 12.45, the 100 ave came out at 0.755, the “500 Max” value was determined as 60.93 and the 500 ave is recorded as 60.93.
